The nature of series [1]: Photophysical characterization of Eu complexes (UV-vis absorption, quantum yield, lifetime). In kind it is physicochemical. The protocol: The europium complexes of ligands 16, 29, 33, 40, and 43 were prepared by separately dissolving each ligand (2 mg) into methanol (200 μL). Excess europium chloride hexahydrate (˜5 equivalents) was dissolved in methanol (200 μL) and the full volume was added to each of the ligand solutions. The solvent was removed, and the residue was dissolved into DMF (50 μL). The europium complexes were then purified by semi-prep HPLC on an Agilent 1260 Infinity instrument using an Eclipse XDB-C18 column (5 μm, 9.4×250 mm). The mobile phase was 10 to 30% acetonitrile in water containing 0.1% trifluoroacetic acid. The volatiles were removed from the HPLC eluents under vacuum, and the residues were separately dissolved into methanol (500 μL) to give methanolic stock solutions of each europium complex with greater than 98% purity. A few drops of these methanolic solutions were evaporated to dryness, and then the residue was dissolved into TBS buffer at a concentration of ca. 3 μM to make aqueous stock solutions (20 mL) with an absorbance of 0.05 (1 cm path length) at 365 nm. Five dilutions (1/6, 2/6, 3/6, 4/6, and 5/6) were made from these aqueous stock solutions to yield six samples with evenly spaced concentrations (3 mL volume each). Quinine sulfate dissolved in 0.05 M sulfuric acid was similarly diluted to a final absorbance of 0.05 at 365 nm, and this solution was similarly (1/6, 2/6, 3/6, 4/6, and 5/6) diluted to afford six quinine sulfate reference samples of evenly spaced concentration. Quinine sulfate in 0.05 M sulfuric acid was used as the quantum yield standard (Φ=0.508). By measuring the absorbance and luminescence of these dilute solutions, the quantum yields of the new Eu complexes were determined. A 5 cm path-length quartz cell was used to measure the absorbance of these dilute solutions in order to improve the UV-vis signal-to-noise. Steady state photoluminescence measurements were collected in a 1 cm fluorescence cuvette at 365 nm excitation wavelength, 1 nm resolution, 10 nm excitation slit width, 1 nm emission slit width, and 0.2 sec integration time on an instrument that has been described elsewhere (D'Aléo, A.; Moore, E. G.; Szigethy, G.; Xu, J.; Raymond, K. N. Inorg. Chem. 2009, 48, 9316.). Absorption spectra were measured at 1 nm resolution, and the absorbance of each sample was taken as the average absorbance measured from 360-370 nm to reflect the 10 nm excitation slit width used for luminescence measurements. The data derived from these experiments, and from the titration experiments in example 11 are tabulated below.

Series [2] in a line: 250 mM DTPA competition experiments (kinetic stability of Eu complexes). In kind it is physicochemical. Conditions: 33⋅Eu versus 16⋅Eu, 43⋅Eu versus 40⋅Eu. From the text:
From these experiments, it is clear that 43⋅Eu is remarkably stable to a wide range of competitive metal ions and chelators. The competitor concentrations mentioned above are a good way to assess the kinetic stability of the complex in various assay conditions. DTPA is an exceptionally good ligand for lanthanide ions, and thus it is not typically used in practical assays. However, DTPA competition offers an excellent way to benchmark the kinetic stability of the complexes reported here. […] In order to compare the kinetic stability of the complexes reported here, a 750 mM stock solution (25 mL) of DTPA was prepared by dissolving DTPA (7.375 g, 18.75 mmol) into water (20 mL) containing potassium hydroxide (5.26 g, 93.75 mmol). The pH of the DTPA solution was adjusted to pH=7.6 by addition of concentrated hydrochloric acid, and then the solution was diluted to a final volume of 25 mL to give a 750 mM DTPA stock solution at pH=7.6. HPLC purified europium complexes of 16, 29, 33, 40, and 43 were separately diluted to 11 μM in TBS buffer, pH=7.6. For each DTPA competition experiment, 1 mL of the 750 mM DTPA solution was added to 2 mL of the 11 μM europium complex solution. The luminescence at 612 nm (365 nm excitation) was monitored for these five separate solutions containing 250 mM DTPA and 7.1 μM of each europium complex as a function of time.

Take `NCCOCCNC(=O)C1CCCN(C(=O)c2cccc(=O)n2[O-])CCCNC(=O)c2ccc(n([O-])c2=O)C(=O)NC2COCC2NC(=O)c2ccc(c(=O)n2[O-])C(=O)NCCCN1C(=O)c1cccc(=O)n1[O-].[Eu+3]` (mixture of isomers) [43⋅Eu]: in series [1] (TBS buffer, pH 7.6), the “ε260/ε at λmax” value is on record as 1.52, the “ε280/ε at λmax” value is recorded as 1.20 and the λmax stood at 358 nm. The “Φtotal at 365 nm excitation” value in series [1] (TBS buffer, quinine sulfate as quantum yield standard) was determined as 28.8%. Further, the Lifetime in series [1] (luminescence, HPLC purified Eu complexes) is 734 μs. Also, the “reduction in kinetic stability upon introduction of the spermine-based sidearm” value in series [2] was approximately 2 fold.

The record behind these values is patent US10239878B2, “Macrocyclic ligands with pendant chelating moieties and complexes thereof” (LUMIPHORE, INC., priority 2016, dated 2019).
